In patent publication US5928931A, “Isolation, purification and cloning of retinol dehydratase” (Cornell Research Foundation, Inc., priority 1997, dated 1999):
Entries after “also recorded” stand apart in the source; their conditions may differ. Where two headings read alike, the source gives them in different places.

How the values were obtained:
Sf-21 cells = format: cell-based, Spodoptera frugiperda
Experimental: 10^7 Spodoplera frugiperda Sf-21 cells or Sf-9 cells were incubated with 1 μCi^3 H-retinol in Grace's insect cell media for 6 hours. Delipidated and radiolabelled retinoid metabolites were analyzed by radiomatic detection after separation by HPLC.
Che. Int. Ed. Engl., 33:1839-41 (1994), which is hereby incorporated by reference.

retinol dehydratase [1] = target: T1, retinol dehydratase (Spodoptera frugiperda, UniProt Q26490); experiment: Retinol dehydratase assay ([3H]-retinol to [3H]-AR, HPLC radiomatic detection); kinetic studies; format: biochemical
T1 sequence (Q26490 1-351): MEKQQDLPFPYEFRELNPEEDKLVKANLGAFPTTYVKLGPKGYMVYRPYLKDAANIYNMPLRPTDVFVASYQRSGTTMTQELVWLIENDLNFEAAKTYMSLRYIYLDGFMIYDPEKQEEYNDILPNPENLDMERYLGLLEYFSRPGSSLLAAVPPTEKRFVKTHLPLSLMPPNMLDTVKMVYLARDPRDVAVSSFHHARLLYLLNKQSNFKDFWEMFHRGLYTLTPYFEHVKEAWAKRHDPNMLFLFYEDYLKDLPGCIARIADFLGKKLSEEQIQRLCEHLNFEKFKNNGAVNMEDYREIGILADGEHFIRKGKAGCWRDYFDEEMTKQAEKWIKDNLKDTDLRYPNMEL
Experimental: 20-50 μl aliquots of supernatant/column fractions were incubated with 1 μCi of [^3 H]-retinol and 20 μl of high speed supernatant from sonicated Sf-9 cells in 200 μl assay buffer (20 mM Tris.Cl pH 7.5, 150 mM NaCl, I mM MgCI2) for 15-60 minutes at 24° C. […] Samples were delipidated and [^3 H]-AR production quantified by a liquid scintillation radiomatic detector in series with HPLC gradient elution (20 mM Tris pH 7.4/methanol/chloroform) from a C-18 Reverse Phase 201TP54 column (Vydac, Separations Group, Hesperia, Calif.) as described by McClean et al., Clin. Chem., 28:693-96 (1982) and Derguini et al., Angew. Che. Int. Ed. Engl., 33:1839-41 (1994), which are hereby incorporated by reference.
Kinetic studies were performed with native retinol dehydratase (0.1 μg/assay) and ^3 H-retinol in the presence of constant substrate carrier protein concentrations, either delipidated BSA or recombinant cellular retinol binding protein ("CRBP"). The initial rate of AR synthesis at different substrate concentrations was determined by radiomatic detection of ^3 H-AR after HPLC separation.
Carrier protein for retinol (delipidated bovine serum albumin or recombinant human CRBP) was added to reduce nonspecific binding and micelle formation.

retinol dehydratase [2] = target: T1, retinol dehydratase; experiment: Fluorimetric titration of recombinant retinol dehydratase with retinol (direct binding, no cofactor)
Experimental: Binding was monitored by following the fluorescence enhancement of retinol (excitation--330 nm; emission--480 nm, open circles). The fluorescence contribution of free retinol was determined by titration with retinol in the absence of protein (open squares), analyzed by linear regression analysis (dashed line) and subtracted from the titration data to give the corrected titration binding curve (closed circles). The data were fitted (solid line) using an equation derived from simple binding theory.
Retinol is an efficient fluorophore and its interactions with proteins are often accompanied by a marked increase in its fluorescence. […]
Recombinant retinol dehydratase (lμM) was titrated with retinol from a concentrated solution in ethanol (final ethanol concentration <2.0%). Binding was monitored by following the fluorescence enhancement of retinol (excitation--330 nm; emission--480 nm, open circles). The fluorescence contribution of free retinol was determined by titration with retinol in the absence of protein (FIG. 5B, open squares), analysed by linear regression analysis (FIG. 5B, dashed line) and subtracted from the titration data to give the corrected titration binding curve (FIG. 5B, closed circles). […]

NIH 3T3 cells = experiment: Activation of resting serum-starved NIH 3T3 cells ([3H]thymidine incorporation); format: cell-based; settings: for time from the start of activation to entry of the S phase: 5% fetal calf serum; for activation of growth arrested cells (thymidine incorporation over 24 hours): cells deprived of serum for 3 or 4 days; for concentrations that activate resting 3T3 cells (dose-response): four day serum-starved cells, FIG. 6B; for entry of treated cells into the S phase: data not shown
Experimental: FIGS. 6A and 6B show the activation of resting NIH 3T3 cells. In FIG. 6(a), one to four day serum-starved cells activated by serum, retinol, 14-HRR, and the peptide growth factors epidermal growth factor ("EGF") and platelet derived growth factor ("PDGF") are shown. […] NIH 3T3 cells were grown to confluence in Dulbecco's minimal essential medium ("DMEM") containing 10% fetal calf serum in 96-well microliter plates. All media were supplemented with 2 mM glutamine and 100 U/ml of penicillin/streptomycin. Cells were washed once with phosphate-buffered saline solution and incubated for one to four days in 200 μl/well of DMEM media/0.1% fetal calf serum ("starvation media"). On the indicated day, starvation media was replaced with 200 μl/well of insulin, transferrin, linoleic acid, bovine serum albumin ("ITLB") media, with or without fetal calf serum, retinoids, or peptide growth factors at the indicated concentrations. ITLB media is RPMI media (Gibco BRL, Grand Island, N.Y.) containing […] bovine serum albumin (1.2 mg/ml), linoleic acid (10^-6 M), bovine insulin (5 μg/ml), and transferrin (5 μg/ml). [^3 H]thymidine (1.2 μCi per well) was added at the beginning of the experiment, and the thymidine incorporation was determined after 24 h. The data represent the mean of triplicate measurements and standard deviations ("SD") were ≤17%. Recombinant PDGF (B/B) and EGF were purchased from Sigma Chemical Company or Boehringer Mannheim Corporation. Anhydroretinol was synthesized by acid catalyzed dehydration of all-trans-retinol. Embree, J. Biol. Chem. 128:187-98 (1939) and Derguini, et al., Angew. Chem. Int. Ed. Engl. 33:1839-41 (1994), which are hereby incorporated by reference. All-trans-14-hydroxy-4,14-retro-retinol was synthesized as described. Derguini, et al., J. Biochem. 33:623-28 (1994), which is hereby incorporated by reference.
Cells starved for 4 days in DMEM/0.1% fetal calf serum were activated with 5% fetal calf serum, 2 μM retinol, or 2 μM 14-HRR, and the cumulative thymidine incorporation was determined at the indicated time points. Δcpm corresponds to the increase in [^3 H]thymidine incorporation in the two hour period before the time point shown. This method is described in FIG. 6. The data in FIG. 7 represents the mean of quadruplicate measurements and SDs were ≤15%.
Cells starved for 4 days in DMEM/0.1% fetal calf serum were activated in 100 μl/well ITLB medium. At the indicated time points, anhydroretinol was added in 100 μl ITLB medium. This method is described in FIG. 6. The data in FIG. 8 represents the mean of quadruplicate measurements and SDs were ≤20%.
Cells starved for 4 days in DMEM/0.1% fetal calf serum were activated with 5% fetal calf serum, 2 μM retinol, or 2 μM 14-HRR. At the time points, 10^-5 M anhydroretinol was added. The cumulative [^3 H]thymidine incorporation was determined after 24 hours. […] The method is described in FIG. 6. The data in FIG. 9 represents the mean of triplicate measurements and SDs were ≤20%.
Confluent NIH 3T3 cells were starved for 1 to 4 days in medium containing 0.1% serum. Then, these starved cells were treated with serum, PDGF, EGF, retinol, or 14-HRR. Activation was quantitated by measuring the [^3 H] thymidine incorporated into newly synthesized DNA during the subsequent 24 hours (FIG. 6A). After a single day of serum starvation, the cells were not yet arrested, and the control cells incorporated the same amount of thymidine as the treated cells. After 2 days of serum deprivation, untreated cells incorporated slightly less thymidine, while cells treated with serum, peptide growth factors and retinoids maintained the original level of thymidine incorporation. In contrast, cells deprived of serum for 3 or 4 days were fully growth arrested; untreated cells incorporated little or no thymidine. […] All subsequent activation experiments were conducted using 4 day starved NIH 3T3 cells.

BSA = BSA (Bos taurus, UniProt P02769); settings: published value; read-out: BSA Kd for retinol; cited from earlier work
CRBP-1 = target: T2, CRBP-1 (Rattus norvegicus, UniProt P02696); settings: published value; read-out: CRBP Kd for retinol; cited from earlier work
T2 sequence (P02696 1-135): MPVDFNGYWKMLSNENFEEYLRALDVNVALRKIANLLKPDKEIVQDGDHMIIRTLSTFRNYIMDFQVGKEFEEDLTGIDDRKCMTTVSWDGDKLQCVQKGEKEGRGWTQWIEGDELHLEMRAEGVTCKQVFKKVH

B lymphocyte = settings: Buck et al. 1993; cited from earlier work
resting T lymphocytes = settings: Buck et al. 1993; cited from earlier work
[3] = system: lymphocyte and HL-60 cell; settings: Eppinger et al. 1993, Buck et al. 1993; cited from earlier work
[4] = 4 day starved cells, 2 μM retinol or 2 μM 14-HRR

Sequence of BSA (P02769 25-607): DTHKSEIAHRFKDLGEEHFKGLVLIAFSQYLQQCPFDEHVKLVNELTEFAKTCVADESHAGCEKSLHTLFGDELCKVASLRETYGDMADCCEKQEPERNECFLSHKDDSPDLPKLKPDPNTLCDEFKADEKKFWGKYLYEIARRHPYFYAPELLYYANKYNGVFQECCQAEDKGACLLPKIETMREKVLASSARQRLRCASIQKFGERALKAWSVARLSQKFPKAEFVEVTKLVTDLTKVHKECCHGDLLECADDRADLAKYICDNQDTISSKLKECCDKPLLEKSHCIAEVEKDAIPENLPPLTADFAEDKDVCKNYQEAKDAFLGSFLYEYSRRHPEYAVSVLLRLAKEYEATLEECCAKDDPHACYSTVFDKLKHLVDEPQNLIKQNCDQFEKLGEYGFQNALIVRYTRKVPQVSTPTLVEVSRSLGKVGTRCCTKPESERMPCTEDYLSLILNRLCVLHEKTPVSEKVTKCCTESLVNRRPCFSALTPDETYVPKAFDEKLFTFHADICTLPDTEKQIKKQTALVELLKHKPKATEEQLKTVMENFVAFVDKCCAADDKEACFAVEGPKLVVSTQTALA

For `[N-]=[N+]=[N-]` [sodium azide], the “inhibition of cellular production of AR compared to controls” value (Sf-21 cells; 0.1% sodium azide treatment) was 96%.

With `CC1=C(/C=C/C(C)=C/C=C/C(C)=C/CO)C(C)(C)CCC1` [retinol] the Vmax (retinol dehydratase [1]; all assays, with carrier protein, n=5) was 490±50 pmoles AR min^-1 enzyme, the Vmax (retinol dehydratase [1]; native retinol dehydratase 0.1 μg/assay, 3H-retinol, representative experiment, non-linear regression) was 530 pmol/mg/min and the Kd (retinol dehydratase [2]; n=3, read-out: range of equilibrium dissociation constant (Kd)) was 2 to 15 nM. The Kd (retinol dehydratase [2]; recombinant enzyme 0.5-1 μM, no cofactor, to be considered an upper limit, read-out: equilibrium dissociation constant (Kd)) was 9 nM, the “time from the start of activation to entry of the S phase” value (NIH 3T3 cells; [4]) was 16 h and the “activation of growth arrested cells (thymidine incorporation over 24 hours)” value (NIH 3T3 cells) was “activated the cells at least as well as serum”. The “concentrations that activate resting 3T3 cells (dose-response)” value (NIH 3T3 cells) was “submicromolar”, the Kd (BSA) was 1000 nM and the Kd (CRBP-1) was 12 nM.

For `CC1=C(/C=C/C(C)=C/C=C/C(C)=C/C(=O)O)C(C)(C)CCC1` [retinoic acid], the “activation of resting cells” value (NIH 3T3 cells; ≤5 μM) was “unable to activate”.

With “Insulin: bovine insulin, 5 μg/ml in ITLB medium” the “activation of resting 3T3 cells” value (NIH 3T3 cells; insulin 5 μg/ml in the defined medium, alone) was “did not activate”.

With `Nc1ncnc2c1ncn2[C@@H]1O[C@H](COP(=O)(O)OS(=O)(=O)O)[C@@H](OP(=O)(O)O)[C@H]1O` [PAPS, 3'-phosphoadenosine 5'-phosphosulfate] the “restoration of retinol dehydratase activity (cofactor)” value (retinol dehydratase [1]; purified recombinant retinol dehydratase, [3H]-retinol assay) was “necessary and sufficient to restore activity”.

For `CC1=CCCC(C)(C)C1=C/C=C(C)/C=C/C=C(\C)C(O)CO` (stereo not shown) [14-HRR, 14-hydroxy-4,14-retro-retinol], the “time from the start of activation to entry of the S phase” value (NIH 3T3 cells; [4]) was 16 h, the “activation of growth arrested cells (thymidine incorporation over 24 hours)” value (NIH 3T3 cells) was “activated the cells at least as well as serum” and the “concentrations that activate resting 3T3 cells (dose-response)” value (NIH 3T3 cells) was “submicromolar”.

With `C=C/C(C)=C/C=C/C(C)=C/C=C1/C(C)=CCCC1(C)C` [anhydroretinol] the “reaction rate (product inhibition)” value (retinol dehydratase [1]; ratio of 50:1 for anhydroretinol to retinol) was “halved”, the “inhibition of activation by retinol and 14-HRR” value (NIH 3T3 cells; 3T3 cells) was “competitively inhibits” and the “time after activation within which added anhydroretinol prevents activation” value (NIH 3T3 cells; 10^-5 M anhydroretinol, activation by 5% fetal calf serum, 2 μM retinol or 2 μM 14-HRR) was at most 90 min. The “inhibition of activation by serum” value (NIH 3T3 cells; 4 day starved cells, FIG. 8) was “blocks activation by serum in a dose-dependent manner; also recorded: competitively inhibits”, the “block of activation when added late” value (NIH 3T3 cells; anhydroretinol added after 2 hours) was “unable to block activation” and the “effect on B lymphocyte proliferation” value (B lymphocyte) was “blocks”. The “effect on activation of resting T lymphocytes” value (resting T lymphocytes) was “blocks” and the “effect on retinol and 14-HRR supported lymphocyte and HL-60 cell growth” value [3] was “competitively inhibits”.

In the case of `O=CCCCC=O` [glutaraldehyde], the “inhibition of cellular production of AR compared to controls” value (Sf-21 cells; 2% glutaraldehyde fixation) is reported as 90%.

In the case of `CCCCCCCCCCCCCC(=O)O[C@@H]1[C@@H](C)[C@@]2(O)[C@@H](C=C(CO)C[C@]3(O)C(=O)C(C)=C[C@@H]23)[C@@H]2C(C)(C)[C@]12OC(C)=O` [phorbol ester], the “entry of treated cells into the S phase” value (NIH 3T3 cells) is reported as “did not enter the S phase” and the “activation of resting cells” value (NIH 3T3 cells; ≤1 μM) is reported as “unable to activate”.

With `Nc1ncnc2c1ncn2[C@@H]1O[C@H](COP(=O)(O)OS(=O)(=O)O)[C@@H](O)[C@H]1O` [adenosine 5'-phosphosulfate] the “activity as cofactor in the [3H]-retinol assay” value (retinol dehydratase [1]; purified recombinant retinol dehydratase, concentration range tested 1-10 μM) was “not active”.

With PDGF the “activation of growth arrested cells (thymidine incorporation over 24 hours)” value (NIH 3T3 cells) was “had no effect”, the “entry of treated cells into the S phase” value (NIH 3T3 cells) was “did not enter the S phase” and the “activation of resting cells” value (NIH 3T3 cells; ≤1000 ng/ml) was “unable to activate”.
